# According to US8440836B2, “Heterocyclic alkanol derivatives” (Bayer Intellectual Property GmbH, priority 2010, dated 2013):
# Experiments:
# [1] = logP by HPLC (EEC Directive 79/831 Annex V.A8); type: physicochemical; settings: HPLC reversed-phase C18, method [a]: LC-MS, pH 2.7, 0.1% aqueous formic acid / acetonitrile, gradient 10% to 95% acetonitrile
# Puccinia triticina = Puccinia triticina test (wheat)/protective; type: in vivo; settings: wheat plants, protective spray, 500 ppm active ingredient, evaluation 8 days after inoculation
# Excerpt: Evaluation follows 8 days after the inoculation.
# Sphaerotheca fuliginea = assay: Sphaerotheca test (cucumber)/protective; settings: cucumber plants, protective spray, 500 ppm active ingredient, evaluation 7 days after inoculation
# Protocol: • Solvent: 49 parts by weight of N,N-dimethylformamide • Emulsifier: 1 part by weight of alkylaryl polyglycol ether
# To produce an appropriate active ingredient formulation, 1 part by weight of active ingredient is mixed with the specified amounts of solvent and emulsifier, and the concentrate is diluted with water to the desired concentration. To test for protective activity, young cucumber plants are sprayed with the formulation of active ingredient at the stated application rate. 1 day after the treatment, the plants are inoculated with a spore suspension of Sphaerotheca fuliginea. The plants are then placed in a greenhouse at 70% relative air humidity and a temperature of 23° C. Evaluation follows 7 days after the inoculation.
# [2] = system: Blumeria graminis f.sp. hordei; assay: Blumeria graminis test (barley)/protective; type: in vivo; settings: barley plants, protective spray, 500 ppm active ingredient, evaluation 7 days after inoculation
# Venturia inaequalis = assay: Venturia test (apple)/protective; settings: apple plants, protective spray, 100 ppm active ingredient, evaluation 10 days after inoculation
# Protocol: • Solvent: 24.5 parts by weight of acetone • 24.5 parts by weight of dimethylacetamide • Emulsifier: 1 part by weight of alkylaryl polyglycol ether
# To produce an appropriate active ingredient formulation, 1 part by weight of active ingredient is mixed with the specified amounts of solvent and emulsifier, and the concentrate is diluted with water to the desired concentration. To test for protective activity, young plants are sprayed with the active ingredient formulation at the stated application rate. After the spray coating has dried on, the plants are inoculated with an aqueous conidia suspension of the apple scab pathogen Venturia inaequalis and then remain in an incubation cabin at about 20° C. and 100% relative air humidity for 1 day. The plants are then placed in a greenhouse at about 21° C. and a relative air humidity of about 90%. Evaluation follows 10 days after the inoculation.
# Septoria tritici = Septoria tritici test (wheat)/protective; type: in vivo; settings: wheat plants, protective spray, 500 ppm active ingredient, evaluation 21 days after inoculation
# Leptosphaeria nodorum = Leptosphaeria nodorum test (wheat)/protective; type: in vivo; settings: wheat plants, protective spray, 500 ppm active ingredient, evaluation 8 days after inoculation
# Fusarium culmorum = assay: Fusarium test (wheat)/seed treatment; type: in vivo; settings: dose 50 g/dt, greenhouse 20° C. 14 days
# Protocol: (§1) The test was conducted under greenhouse conditions. Wheat seeds treated with an inventive active compound or a combination of inventive active compounds were sown in 6×6 cm vessels, into a mixture of steamed field soil and sand (1:1). The test compound(s) were dissolved in N-methyl-2-pyrrolidone and diluted to the desired concentration with water. Wheat kernels were inoculated with spores of Fusarium culmorum. The infected and ground kernels were distributed between the treated wheat seeds. The seeds were covered with a top layer of clay granules and incubated in a greenhouse at 20° C. for 14 days. Evaluation was effected by counting the plants which emerged.
# Rhizoctonia solani = assay: Rhizoctonia test (cotton)/seed treatment; type: in vivo; settings: cottonseed treatment, dose 50 g/dt, greenhouse 20° C. 7 days
# Protocol: The test was conducted under greenhouse conditions. Cottonseeds treated with an inventive active compound or a combination of inventive active compounds were sown in 6×6 cm vessels, into a mixture of steamed field soil and sand (1:1). The test compound(s) were dissolved in N-methyl-2-pyrrolidone and diluted to the desired concentration with water. Perlite was inoculated with spores of Rhizoctonia solani. The infected perlite was distributed between the treated cottonseeds. The seeds were covered with a top layer of clay granules and incubated in a greenhouse at 20° C. for 7 days.
# Leptosphaeria maculans = assay: Leptosphaeria test (oilseed rape)/seed treatment; type: in vivo; settings: rapeseed treatment, dose 50 g/dt, greenhouse 10° C. 14 days and 18° C. 7 days
# Protocol: The test was conducted under greenhouse conditions. […] treated with an inventive active compound or a combination of inventive active compounds were sown in 6×6 cm vessels, into a mixture of steamed field soil and to sand (1:1). The test compound(s) were dissolved in N-methyl-2-pyrrolidone and diluted to the desired concentration with water. Perlite was inoculated with spores of Leptosphaeria maculans. The infected perlite was distributed between the treated […]. The seeds were covered with a top layer of steamed field soil and sand (1:1) and incubated in a greenhouse at 10° C. for 14 days and at 18° C. for 7 days.
# Microdochium nivale = assay: Microdochium test (wheat)/seed treatment; type: in vivo; settings: dose 50 g/dt, greenhouse 10° C. 21 days
# Protocol: as §1, with “Microdochium nivale.” for “Fusarium culmorum.”, “steamed field soil and sand (1:1)” for “clay granules”, “10°” for “20°”, “21” for “14”, “days.” for “days. Evaluation was effected by counting the plants which emerged.”
SMILES,logP [1],efficacy (Puccinia triticina) [%],efficacy (Sphaerotheca fuliginea) [%],efficacy [2] [%],efficacy (Venturia inaequalis) [%],efficacy (Septoria tritici) [%],efficacy (Leptosphaeria nodorum) [%],efficiency (emerged plants) (Fusarium culmorum) [%],efficiency (emerged and diseased plants) (Rhizoctonia solani) [%],efficiency (emerged plants) (Leptosphaeria maculans) [%],chromatographic logP ([1]; reversed-phase C18 HPLC column),efficiency (emerged plants) (Microdochium nivale) [%]
CC1(C(O)(COc2ccc(Br)cc2)c2cncs2)CCCCC1 (stereo not shown) [Compound 33],logP 4.37^[a]; [M + H]^+ = 396/398,83,100,89,99,,,,,,,
CC(C)(/C=C/Cl)C(O)(COc1ccc(I)cc1)c1cncs1 (stereo not shown) [Compound 53],logP 3.92^[a]; [M + H]^+ = 450,100,94,94,,100,83,,,,,
CC(C)(C)C(O)(COc1ccc(I)cc1)c1cncs1 (stereo not shown) [Compound 1],,100,100,100,99,100,100,100,70,70,,
CC1(C(O)(COc2ccc(Cl)cc2)c2cncs2)CC1 (stereo not shown) [Compound 14],logP 3.11^[a]; [M + H]^+ = 310; 312,,95,,98,,,,,,,
CC(C)(C)C(O)(COc1ccc(C2CC2)cc1)c1cncs1 (stereo not shown) [Compound 79],logP 3.73^[a]; [M + H]^+ = 318,,93,100,100,88,86,,,,,
CC(CF)(CF)C(O)(COc1ccc(I)cc1)c1cncs1 (stereo not shown) [Compound 4],,100,100,100,,100,100,,,,3.16,
OC(Cc1cncs1)(Cc1ccccc1F)C1(Cl)CC1 (stereo not shown) [Compound 60],logP 3.06^[a]; [M + H]^+ = 312,95,100,100,100,94,100,89,90,80,,100
CC(C)(C)C(O)(COc1ccc(SC(F)(F)F)cc1)c1cncs1 (stereo not shown) [Compound 41],logP 3.98^[a]; [M + H]^+ = 378,100,95,100,95,71,100,,,,,
CC(C)(C)C(O)(COc1ccc(Br)cc1)c1cncs1 (stereo not shown) [Compound 2],,100,99,100,93,100,100,,,,,
OC(Cc1cncs1)(Cc1ccccc1Cl)C1(Cl)CC1 (stereo not shown) [Compound 57],,,100,100,100,70,88,89,80,80,,78
CO/N=C/c1ccc(OCC(O)(c2cncs2)C(C)(C)C)cc1 (stereo not shown) [Compound 3],,89,,100,100,83,92,,,,,
